Test results published in patent US10106515B2, “1-(cyclopent-2-en-1-yl)-3-(2-hydroxy-3-(arylsulfonyl)phenyl)urea derivatives as CXCR2 inhibitors” (GLAXOSMITHKLINE INTELLECTUAL PROPERTY DEVELOPMENT LIMITED, priority 2014, dated 2018).
Counter-ions that a name gives are not always drawn.

target: T1, recombinant human CXCR2 (Homo sapiens, UniProt P25025); test: CXCR2 Tango assay; assay type: cell-based; settings: mean pIC50 of multiple test results; stimulated with 80 nM hCXCL1; reporter gene blue/green emission ratio; read-out: pIC50 (CXCR2 Tango assay) (converted)
T1 construct: TEV protease site; Gal4-VP16 transcription factor
T1 sequence (P25025 1-360): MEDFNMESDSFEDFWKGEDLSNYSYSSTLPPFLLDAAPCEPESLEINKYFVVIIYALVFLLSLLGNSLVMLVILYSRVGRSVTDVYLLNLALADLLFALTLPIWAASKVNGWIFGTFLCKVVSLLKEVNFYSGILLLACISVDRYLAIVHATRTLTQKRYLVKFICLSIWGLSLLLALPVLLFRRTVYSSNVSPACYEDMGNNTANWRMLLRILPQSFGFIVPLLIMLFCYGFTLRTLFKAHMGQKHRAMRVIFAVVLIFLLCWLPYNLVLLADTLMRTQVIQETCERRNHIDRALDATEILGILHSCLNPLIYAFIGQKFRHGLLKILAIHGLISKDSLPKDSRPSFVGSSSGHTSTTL
Text: The assay measures ligand-induced activation of the receptor CXCR2 in a stable cell line containing the recombinant human CXCR2 linked to a TEV protease site and a Gal4-VP16 transcription factor (Invitrogen). Ligand binding to the receptor results in the recruitment of arrestin proteins (tagged with protease) to the receptor and triggers the release of a tethered transcription factor. The transcription factor enters the nucleus and activates the transcription of the reporter gene. The ability of a compound to inhibit CXCR2 activation is indirectly assessed by measuring the reporter gene activity.
A vial of cryopreserved cells was removed from liquid nitrogen and rapidly thawed in a water bath at 37° C. with gentle agitation. The contents of the vial were transferred drop-wise into Thawing Medium in a sterile 15 ml conical tube and then centrifuged at 1000 rpm for 4-5 min. Then the cell pellets were resuspended in Assay Medium at a density of ˜200,000 cells/ml. All test compounds were dissolved in DMSO at a concentration of 10 mM and were prepared in 100% DMSO to provide 10 point dose response curves. A reference CXCR2 antagonist was added to wells in row 2, columns 1-5 & 7-11. Exemplified compounds 1-4, 7, 8-10, 13-22, 24-26, 28-30, 32, 33, 36, 37, 40, 42-44. 95-110, 115-118, 120, 121, 125, 126, 129-134, 137, 138, 140, 142, 147-149, 153-157, 159-162, 163-166, 168, 170, 172, 174-180 and 202 were tested using the CXCR2 antagonist sodium 3-chloro-6-(3-(2,3-dichlorophenyl)ureido)-2-sulfamoylphenolate as reference compound (Reference Compound 1) (published International patent application WO2002/079122). […] Test compounds were added to wells in row 2, columns 13-17 & 19-23 and rows 3-15, columns 1-5 & 7-11/13-17 & 19-23 (columns 6 and 18 as positive controls and un-stimulated controls respectively; columns 12 and 24 as cell-free control). Compounds in solution were added to the assay plate (Greiner 781090) using an Echo (Labcyte) concentration-response program (50 nl/well). The cell-free, un-stimulated and positive controls were loaded with 50 nl/well pure DMSO to ensure that the DMSO concentration was constant across the plate for all assays. Using Multi-drop Combi (Thermo) with standard cassette, 50 μl of Assay Medium was added to each well in the cell-free controls (columns 12 and 24); 50 μl of the cell suspension without hCXCL1 (a CXCR2 ligand) was added to each well in column 18 of the plate (˜10,000 cells per well); and 50 μl of the cell suspension with 80 nM hCXCL1 was added to the rest of wells of the plate (˜10,000 cells per well). The cells were incubated overnight at 37° C./5% CO2. 10 μl of 6× substrate mixture (LiveBLAzer™-FRET B/G substrate (CCF4-AM) Cat # K1096 from Invitrogen, Inc.) was added to each well using Multi-drop Combi (Thermo) with small-tube cassette and the plates incubated at room temperature for 2 h in the dark. The plate was finally read on EnVision using one excitation channel (409 nm) and two emission channels (460 nm and 530 nm).
The blue/green emission ratio (460 nm/530 nm) was calculated for each well, by dividing the background-subtracted Blue emission values by the background-subtracted Green emission values. The dose response curve was based on sigmoidal dose-response model. All ratio data was normalized based upon the maximum emission ratio of positive control (hCXCL1) and minimum emission ratio of negative control (DMSO) on each plate. The intrinsic activity (IA) of each compound would be the normalized percentage of its maximum response after curve fitting.
All exemplified compounds (except for Compounds 203 and 204) were tested in the CXCR2 Tango assay or a similar assay described above. The data mentioned below represents a mean pIC 50 value of multiple test results. It is understood that the data illustrated below may have reasonable variation depending on the specific conditions and procedures used by the person conducting the testing.

| IC50 [nM] | Compound |
| --- | --- |
| ≤ 1 | CC1=CCC[C@H]1NC(=O)Nc1ccc(Cl)c(S(=O)(=O)[C@H]2CC[C@H](O)C2)c1O (racemic) [Compound 45, (±)-trans-1-(4-chloro-2-hydroxy-3-((3-hydroxycyclopentyl)sulfonyl)phenyl)-3-((R)-2-methylcyclopent-2-en-1-yl)urea] |
| ≤ 1 | CC1=CCC[C@H]1NC(=O)Nc1ccc(Cl)c(S(=O)(=O)C2CCC[C@@H]2O)c1O (mixture of isomers) [Compound 51, (±)trans-1-(4-chloro-2-hydroxy-3-((2-hydroxycyclopent-yl)sulfonyl)phenyl)-3-((R)-2-methylcyclopent-2-en-1-yl)urea, trifluoroacetic acid salt] |
| ≤ 10 | COC1CCCCC1S(=O)(=O)c1c(Cl)ccc(NC(=O)NC2CCC=C2C)c1O (racemic) [Compound 150, (±)trans-1-(4-chloro-2-hydroxy-3-((2-methoxycyclohex-yl)sulfonyl)phenyl)-3-((R)-2-methylcyclopent-2-en-1-yl)urea] |
| ≤ 10 | C[C@]1(S(=O)(=O)c2c(Cl)ccc(NC(=O)N[C@@H]3CCC=C3Cl)c2O)CCOC1 (single isomer, unassigned) [Compound 197] |
| ≤ 10 | C[C@@]1(S(=O)(=O)c2c(Cl)ccc(NC(=O)N[C@@H]3CCC=C3Cl)c2O)CCOC1 (single isomer, unassigned) [Compound 198] |
| ≤ 1 | CO[C@@H]1CC[C@@H](S(=O)(=O)c2c(Cl)ccc(NC(=O)N[C@@H]3CCC=C3C)c2O)C1 (stereo in doubt) [Compound 143, trans-1-(4-chloro-2-hydroxy-3-((3-methoxycyclopent-yl)sulfonyl)phenyl)-3-((R)-2-methylcyclopent-2-en-1-yl)urea] |
| ≤ 10 | CC(C)(C(F)(F)F)S(=O)(=O)c1c(Cl)ccc(NC(=O)NC2C=CCC2)c1O (stereo not drawn) [Compound 1, 1-(4-chloro-2-hydroxy-3-((1,1,1-trifluoro-2-methylpropan-2-yl)sulfonyl)phenyl)-3-(cyclopent-2-en-1-yl)urea] |
| ≤ 1 | CC(C)(C(F)(F)F)S(=O)(=O)c1c(Cl)ccc(NC(=O)NC2CCC=C2Cl)c1O (stereo not drawn) [Compound 2, 1-(4-chloro-2-hydroxy-3-((1,1,1-trifluoro-2-methylpropan-2-yl)sulfonyl)phenyl)-3-(2-chlorocyclopent-2-en-1-yl)urea] |
| ≤ 10 | CC(C)(C)S(=O)(=O)c1c(Cl)ccc(NC(=O)NC2CCC=C2Cl)c1O (stereo not drawn) [Compound 3, 1-(3-(tert-butylsulfonyl)-4-chloro-2-hydroxyphenyl)-3-(2-chlorocyclopent-2-en-1-yl)urea] |
| ≤ 10 | CC(C)(c1ccccn1)S(=O)(=O)c1c(Cl)ccc(NC(=O)NC2CCC=C2Cl)c1O (stereo not drawn) [Compound 4, 1-(4-chloro-2-hydroxy-3-((2-(pyridin-2-yl)propan-2-yl)sulfonyl)phenyl)-3-(2-chlorocyclopent-2-en-1-yl)urea, trifluoroacetic acid salt] |
| ≤ 1 | CC(C)(CCO)S(=O)(=O)c1c(Cl)ccc(NC(=O)N[C@@H]2CCC=C2Cl)c1O [Compound 6, (R)-1-(4-chloro-2-hydroxy-3-((4-hydroxy-2-methylbutan-2-yl)sulfonyl)phenyl)-3-(2-chlorocyclopent-2-en-1-yl)urea] |
| ≤ 10 | CC(C)(CF)S(=O)(=O)c1c(Cl)ccc(NC(=O)NC2C=CCC2)c1O (stereo not drawn) [Compound 9, 1-(4-chloro-3-((1-fluoro-2-methylpropan-2-yl)sulfonyl)-2-hydroxyphenyl)-3-(cyclopent-2-en-1-yl)urea] |
| ≤ 10 | CC(C)(CF)S(=O)(=O)c1c(Cl)ccc(NC(=O)NC2CCC=C2Cl)c1O (stereo not drawn) [Compound 10, 1-(4-chloro-3-((1-fluoro-2-methylpropan-2-yl)sulfonyl)-2-hydroxyphenyl)-3-(2-chlorocyclopent-2-en-1-yl)urea] |
| ≤ 10 | CC(C)(CO)S(=O)(=O)c1c(Cl)ccc(NC(=O)N[C@@H]2CCC=C2Cl)c1O [Compound 12, (R)-1-(4-chloro-2-hydroxy-3-((1-hydroxy-2-methylpropan-2-yl)sulfonyl)phenyl)-3-(2-chlorocyclopent-2-en-1-yl)urea] |
| ≤ 10 | CC(C)(F)S(=O)(=O)c1c(Cl)ccc(NC(=O)NC2C=CCC2)c1O (stereo not drawn) [Compound 14, 1-(4-chloro-3-((2-fluoropropan-2-yl)sulfonyl)-2-hydroxyphenyl)-3-(cyclopent-2-en-1-yl)urea] |
| ≤ 10 | CC(C)(F)S(=O)(=O)c1c(Cl)ccc(NC(=O)NC2CCC=C2Cl)c1O (stereo not drawn) [Compound 15, 1-(4-chloro-3-((2-fluoropropan-2-yl)sulfonyl)-2-hydroxyphenyl)-3-(2-chlorocyclopent-2-en-1-yl)urea] |
| ≤ 10 | CC1=C(Cl)CCC1NC(=O)Nc1ccc(Cl)c(S(=O)(=O)C(C)C)c1O (stereo not drawn) [Compound 16, 1-(4-chloro-2-hydroxy-3-(isopropylsulfonyl)phenyl)-3-(3-chloro-2-methylcyclopent-2-en-1-yl)urea] |
| ≤ 10 | CC1=C(F)CCC1NC(=O)Nc1ccc(Cl)c(S(=O)(=O)C(C)C)c1O (stereo not drawn) [Compound 17, 1-(4-chloro-2-hydroxy-3-(isopropylsulfonyl)phenyl)-3-(3-fluoro-2-methylcyclopent-2-en-1-yl)urea] |
| ≤ 10 | CC(C)S(=O)(=O)c1c(Cl)ccc(NC(=O)NC2C=CCC2)c1O (stereo not drawn) [Compound 18, 1-(4-chloro-2-hydroxy-3-(isopropylsulfonyl)phenyl)-3-(cyclopent-2-en-1-yl)urea] |
| ≤ 1 | CC(C)S(=O)(=O)c1c(Cl)ccc(NC(=O)NC2CCC=C2Cl)c1O (stereo not drawn) [Compound 21, 1-(4-chloro-2-hydroxy-3-(isopropylsulfonyl)phenyl)-3-(2-chlorocyclopent-2-en-1-yl)urea] |
| ≤ 10 | CC(C)S(=O)(=O)c1c(Cl)ccc(NC(=O)NC2CCC=C2F)c1O (stereo not drawn) [Compound 22, 1-(4-chloro-2-hydroxy-3-(isopropylsulfonyl)phenyl)-3-(2-fluorocyclopent-2-en-1-yl)urea] |
| ≤ 10 | CC(c1ccccn1)S(=O)(=O)c1c(Cl)ccc(NC(=O)NC2C=CCC2)c1O (stereo not drawn) [Compound 24, 1-(4-chloro-2-hydroxy-3-((1-(pyridin-2-yl)ethyl)sulfonyl)phenyl)-3-(cyclopent-2-en-1-yl)urea, trifluoroacetic acid salt] |
| ≤ 10 | CC1=CCCC1NC(=O)Nc1ccc(Cl)c(S(=O)(=O)C(C)c2ccccn2)c1O (stereo not drawn) [Compound 25, 1-(4-chloro-2-hydroxy-3-((1-(pyridin-2-yl)ethyl)sulfonyl)phenyl)-3-(2-methylcyclopent-2-en-1-yl)urea, trifluoroacetic acid salt] |
| ≤ 10 | CC(c1ccccn1)S(=O)(=O)c1c(Cl)ccc(NC(=O)NC2CCC=C2Cl)c1O (stereo not drawn) [Compound 26, 1-(4-chloro-2-hydroxy-3-((1-(pyridin-2-yl)ethyl)sulfonyl)phenyl)-3-(2-chlorocyclopent-2-en-1-yl)urea] |
